We go through five compounds from patent EP0935964A1, “Pharmaceutical compositions containing NSAIDs and piperine” (PANACEA BIOTEC LIMITED, priority 1998, dated 1999).

Like-named read-outs stand apart in the source and are kept apart here.

The conditions of series [1]: formulations containing Piperine compared with those which did not contain Piperine; cited from earlier work.
The nature of series [2]: Plasma levels of Nimesulide in rats after oral administration of the compositions (Experiment I, HPLC). It is filed as in vivo, albino rats. As for the experimental part:
The rats were housed 5 per cage with food and water provided ad libidum. On the day of experimentation the rats were randomised into ten batches of 5 rats each. Four groups were formed. […] Group II consisted of four batches of five rats each. […] Rats of batch I from Group II were sacrificed 60 minutes post treatment after Chloroform anaesthesia. […] Blood was collected from the rats from the ventricle into heparinised tubes. Group III consisted of one batch of 5 rats, which received only Piperine at a dose level of 1.0mg/kg body wt. […] Blood was collected from the rats from the ventricle into heparinised tubes. Group IV consisted of 4 batches of 5 rats each. […] Rats of batch 1 from Group IV were sacrificed 60 minutes post treatment after Chloroform anaesthesia. […] Blood was collected from the rats from the ventricle into heparinised tubes. The blood samples were centrifuged at 3700 rpm and the plasma separated. […] Extracted benzene was evaporated in a water bath at 95°C and reconstituted with 100 µl of mobile phase and 10 µl was injected into the HPLC. Waters HPLC fitted with C18 µ Bondapack was used along with Waters UV-Vis detector (254nm). […] Unpaired student T test was applied on the data. Level of significance was fixed at p < 0.05.

The conditions of series [3]: cited from earlier work.
The conditions of series [4]: cited from earlier work. This is another data set of the same source.
Another series deals with plasma proteins. The conditions noted are these: cited from earlier work.
For series [5], the system named is acetic acid induced writhing. As to conditions: mice, n = 8, Nimesulide 10mg/kg. The method, then:
Pharmacokinetic studies were also performed in rats. […] The study design for acetic acid induced writhing in mice was as follows : Table II

The conditions of series [6]: in vivo; cited from earlier work.
The conditions of series [7]: rats, oral, Nimesulide 10 mg/kg (with Piperine 10mg/kg in the combination), n = 5.
Protocol: The single test point pharmacokinetic studies were performed in two groups of rats. […] Rats were sacrificed at 90 minutes. post treatment and blood samples were analysed by HPLC.

As to `NNC(=O)c1ccncc1` [Isoniazid], in series [1], the “mean increase in AUC” value is 131%.

Turning to `NC(=O)c1cnccn1` [Pyrazinamide], the “mean increase in AUC” value in series [1] is 36%.

`O=C(/C=C/C=C/c1ccc2c(c1)OCO2)N1CCCCC1` [Piperine, (E, E) 1-[5-(1,3-benzodioxyl-5-yl)-1-oxo-2,4-pentadenyl] piperidine]: in series [2] (only Piperine 1.0 mg/kg, no Nimesulide, column 120 min.), the “Plasma levels of Nimesulide” value was “Nil”. For the same compound, the pKa in series [3] is 12.22. Moreover, the solubility entry was “soluble” in series [4] (in benzene, chloroform, ether, ethyl acetate, dichloromethane, alcohol, acetic acid) and “insoluble” in series [4] (in water, pet. ether).

Take `CO[C@H]1/C=C/O[C@@]2(C)Oc3c(C)c(O)c4c(O)c(c(/C=N/N5CCN(C)CC5)c(O)c4c3C2=O)NC(=O)/C(C)=C\C=C\[C@H](C)[C@H](O)[C@@H](C)[C@@H](O)[C@@H](C)[C@H](OC(C)=O)[C@@H]1C` [Rifampicin]: the “mean increase in AUC” value in series [1] is reported as 37.6%.

As to `CS(=O)(=O)Nc1ccc([N+](=O)[O-])cc1Oc1ccccc1` [Nimesulide, N-(4-nitro, 2-phenoxyphenyl) methanesulfonamide], in the series on plasma proteins, the “bound to plasma proteins” value is reported as 99%. Besides, in series [2] (Nimesulide alone 1.8 mg/kg, 240 min post treatment), the “Concentration of the drug in plasma” value worked out at 4.6 ± 1.4 kg/mL. Besides, the “Plasma levels of Nimesulide” value in series [2] (oral suspension, Nimesulide 1.8 mg/kg (with Piperine 1.0 mg/kg in the combination), 60 min. post treatment) came to 5800 ± 1700 µg/mL; in series [2] (oral suspension, Nimesulide 1.8 mg/kg (with Piperine 1.0 mg/kg in the combination), 120 min. post treatment), 7900 ± 2300 µg/mL; in series [2] (oral suspension, Nimesulide 1.8 mg/kg (with Piperine 1.0 mg/kg in the combination), 240 min. post treatment), 4600 ± 1400 µg/mL; in series [2] (oral suspension, Nimesulide 1.8 mg/kg (with Piperine 1.0 mg/kg in the combination), 360 min. post treatment), 2200 ± 1100 µg/mL. Moreover, in series [5], the “% PROTECTION” value came to 54%. Moreover, the “dose excreted unchanged in the urine” value in series [6] is 1-3%. Further, the “Plasma concentration (90 min post treatment)” value in series [7] turned out to be 8818 µg/mL.
